The NIST ThermoML archive (doi:10.1021/acs.jced.5b00820)

Test: xn = mol fraction of the nth substance listed
Conditions: 102.2 kPa, Liquid, Vibrating tube method

C[Si](C)(O[Si](C)(C)c1ccccc1)c1ccccc1 [1,3-diphenyltetramethyldisiloxane] + C=C[Si](C)(C)O[Si](C)(C)C=C
mass density [kg/m3]
Conditions | 308.15 K | 313.15 K | 318.15 K
x1 = 0.0502 | 809.57 | 804.7 | 799.79
x1 = 0.1 | 820.63 | 815.84 | 811.01
x1 = 0.1487 | 831.07 | 826.38 | 821.62
x1 = 0.2002 | 841.7 | 837.11 | 832.41
x1 = 0.2498 | 851.61 | 847.08 | 842.45
x1 = 0.3 | 861.28 | 856.78 | 852.19
x1 = 0.3503 | 870.64 | 866.2 | 861.68
x1 = 0.3994 | 879.46 | 875.05 | 870.55
x1 = 0.4502 | 888.32 | 883.96 | 879.52
x1 = 0.5001 | 896.73 | 892.42 | 888.02
x1 = 0.5498 | 904.84 | 900.61 | –
x1 = 0.6002 | 912.8 | 908.56 | –
x1 = 0.6502 | 920.47 | 916.26 | –
x1 = 0.7004 | 927.9 | 923.73 | –
x1 = 0.7504 | 935.1 | 930.94 | –
x1 = 0.8003 | 942.07 | 937.9 | –
x1 = 0.8498 | 948.8 | 944.66 | –
x1 = 0.8986 | 955.23 | 951.09 | –
x1 = 0.9502 | 961.82 | 957.69 | –
x1 = 1 | 967.99 | 963.87 | –
